According to ChEMBL document CHEMBL4765295, “Synthesis, pharmacological profile and 2D-QSAR studies of curcumin-amino acid conjugates as potential drug candidates” (Eur J Med Chem, 2020):

Test system: Rattus norvegicus
Test: Antiinflammatory activity in Wistar rat model of carrageenan-induced paw edema assessed as reduction in thickness of paw edema at 10 mg/kg, ip pretreated for 1 hr followed by carrageenan challenge and measured after 1 hr (reference value: 2.41 +/-0.05 mm)
Type: functional
Details: time 1 hr after carrageenan

Structure (SMILES) | Activity [mm]
COc1cc(/C=C/C(=O)/C=C(O)/C=C/c2ccc(OC(=O)[C@@H](C)N)c(OC)c2)ccc1OC(=O)[C@@H](C)N.Cl.Cl | 0.95

Test system: Rattus norvegicus
Test: Anti-inflammatory activity in Wistar rat assessed as inhibition of carrageenan-induced paw edema at 10 mg/kg, ip pretreated for 1 hr followed by carrageenan challenge and measured after 1 hr relative to control (reference value: 0.00 +/-0.02 %)
Type: functional
Details: time 2 hrs

Structure (SMILES) | inhibition in vivo at 10 mg/kg [%]
COc1cc(/C=C/C(=O)/C=C(O)/C=C/c2ccc(OC(=O)[C@@H](C)N)c(OC)c2)ccc1OC(=O)[C@@H](C)N.Cl.Cl | 61

Test system: Rattus norvegicus
Test: Antiinflammatory activity in Wistar rat model of carrageenan-induced paw edema assessed as reduction in thickness of paw edema at 10 mg/kg, ip pretreated for 1 hr followed by carrageenan challenge and measured after 2 hrs (reference value: 2.06 +/-0.09 mm)
Type: functional
Details: time 3 hrs

Structure (SMILES) | Activity [mm]
COc1cc(/C=C/C(=O)/C=C(O)/C=C/c2ccc(OC(=O)[C@@H](C)N)c(OC)c2)ccc1OC(=O)[C@@H](C)N.Cl.Cl | 0.79

Test system: Rattus norvegicus
Test: Anti-inflammatory activity in Wistar rat assessed as inhibition of carrageenan-induced paw edema at 10 mg/kg, ip pretreated for 1 hr followed by carrageenan challenge and measured after 2 hr relative to control (reference value: 0.00 +/-0.03 %)
Type: functional
Details: time 3 hrs

Structure (SMILES) | inhibition in vivo at 10 mg/kg [%]
COc1cc(/C=C/C(=O)/C=C(O)/C=C/c2ccc(OC(=O)[C@@H](C)N)c(OC)c2)ccc1OC(=O)[C@@H](C)N.Cl.Cl | 62

Test system: Rattus norvegicus
Test: Antiinflammatory activity in Wistar rat model of carrageenan-induced paw edema assessed as reduction in thickness of paw edema at 10 mg/kg, ip pretreated for 1 hr followed by carrageenan challenge and measured after 3 hrs (reference value: 1.79 +/-0.07 mm)
Type: functional
Details: time 4 hrs

Structure (SMILES) | Activity [mm]
COc1cc(/C=C/C(=O)/C=C(O)/C=C/c2ccc(OC(=O)[C@@H](C)N)c(OC)c2)ccc1OC(=O)[C@@H](C)N.Cl.Cl | 0.46

Test system: Rattus norvegicus
Test: Anti-inflammatory activity in Wistar rat assessed as inhibition of carrageenan-induced paw edema at 10 mg/kg, ip pretreated for 1 hr followed by carrageenan challenge and measured after 3 hr relative to control (reference value: 0.00 +/-0.1 %)
Type: functional
Details: time 4 hrs

Structure (SMILES) | inhibition in vivo at 10 mg/kg [%]
COc1cc(/C=C/C(=O)/C=C(O)/C=C/c2ccc(OC(=O)[C@@H](C)N)c(OC)c2)ccc1OC(=O)[C@@H](C)N.Cl.Cl | 74

Test system: Rattus norvegicus
Test: Antiinflammatory activity in Wistar rat model of carrageenan-induced paw edema assessed as reduction in thickness of paw edema at 10 mg/kg, ip pretreated for 1 hr followed by carrageenan challenge and measured after 4 hrs (reference value: 1.40 +/-0.10 mm)
Type: functional
Details: time 5 hrs

Structure (SMILES) | Activity [mm]
COc1cc(/C=C/C(=O)/C=C(O)/C=C/c2ccc(OC(=O)[C@@H](C)N)c(OC)c2)ccc1OC(=O)[C@@H](C)N.Cl.Cl | 0.06

Test system: Rattus norvegicus
Test: Anti-inflammatory activity in Wistar rat assessed as inhibition of carrageenan-induced paw edema at 10 mg/kg, ip pretreated for 1 hr followed by carrageenan challenge and measured after 4 hr relative to control (reference value: 0.00 +/-0.4 %)
Type: functional
Details: time 5 hrs

Structure (SMILES) | inhibition in vivo at 10 mg/kg [%]
COc1cc(/C=C/C(=O)/C=C(O)/C=C/c2ccc(OC(=O)[C@@H](C)N)c(OC)c2)ccc1OC(=O)[C@@H](C)N.Cl.Cl | 96

Test system: Rattus norvegicus
Test: Antiinflammatory activity in Wistar rat model of carrageenan-induced paw edema assessed as reduction in thickness of paw edema at 10 mg/kg, ip pretreated for 1 hr followed by carrageenan challenge and measured after 24 hrs (reference value: 0.83 +/-0.08 mm)
Type: functional
Details: time 25 hrs

Structure (SMILES) | Activity [mm]
COc1cc(/C=C/C(=O)/C=C(O)/C=C/c2ccc(OC(=O)[C@@H](C)N)c(OC)c2)ccc1OC(=O)[C@@H](C)N.Cl.Cl | 0.59

Test system: Rattus norvegicus
Test: Anti-inflammatory activity in Wistar rat assessed as inhibition of carrageenan-induced paw edema at 10 mg/kg, ip pretreated for 1 hr followed by carrageenan challenge and measured after 24 hr relative to control (reference value: 0.00 +/-0.3 %)
Type: functional
Details: time 25 hrs

Structure (SMILES) | inhibition in vivo at 10 mg/kg [%]
COc1cc(/C=C/C(=O)/C=C(O)/C=C/c2ccc(OC(=O)[C@@H](C)N)c(OC)c2)ccc1OC(=O)[C@@H](C)N.Cl.Cl | 29

Test system: Rattus norvegicus
Test: Anti-inflammatory activity in Wistar rat assessed as inhibition of carrageenan-induced paw edema at 10 mg/kg, ip pretreated for 1 hr followed by carrageenan challenge and measured after 4 hr relative to indomethacin
Type: functional
Details: time 5 hrs

Structure (SMILES) | inhibition in vivo at 10 mg/kg [%]
COc1cc(/C=C/C(=O)/C=C(O)/C=C/c2ccc(OC(=O)[C@@H](C)N)c(OC)c2)ccc1OC(=O)[C@@H](C)N.Cl.Cl | 110

Test system: not listed separately
Test: Ulcerogenic activity in fasted albino mouse assessed as incidence of gastric ulceration at 10 mg/kg, po for 3 days (reference value: 0 %)
Type: toxicity, organism-based
Details: in vivo, 72 h, time 3 day

Structure (SMILES) | Activity [%]
COc1cc(/C=C/C(=O)/C=C(O)/C=C/c2ccc(OC(=O)[C@@H](C)N)c(OC)c2)ccc1OC(=O)[C@@H](C)N.Cl.Cl | 0

Test system: not listed separately
Test: Ulcerogenic activity in fasted albino mouse assessed as average number of ulcers in gastric mucosa at 10 mg/kg, po for 3 days (reference value: 0)
Type: toxicity, organism-based
Details: in vivo, 72 h, time 3 day

Structure (SMILES) | Activity
COc1cc(/C=C/C(=O)/C=C(O)/C=C/c2ccc(OC(=O)[C@@H](C)N)c(OC)c2)ccc1OC(=O)[C@@H](C)N.Cl.Cl | 0

Test system: not listed separately
Test: Ulcerogenic activity in fasted albino mouse assessed as average severity of ulcers in gastric mucosa at 10 mg/kg, po for 3 days (reference value: 0)
Type: toxicity, organism-based
Details: in vivo, 72 h, time 3 day

Structure (SMILES) | Activity
COc1cc(/C=C/C(=O)/C=C(O)/C=C/c2ccc(OC(=O)[C@@H](C)N)c(OC)c2)ccc1OC(=O)[C@@H](C)N.Cl.Cl | 0

Test system: not listed separately
Test: Ulcerogenic activity in fasted albino mouse assessed as ulcer index in gastric mucosa at 10 mg/kg, po for 3 days (reference value: 0)
Type: toxicity, organism-based
Details: in vivo, 72 h, time 3 day

Structure (SMILES) | UI
COc1cc(/C=C/C(=O)/C=C(O)/C=C/c2ccc(OC(=O)[C@@H](C)N)c(OC)c2)ccc1OC(=O)[C@@H](C)N.Cl.Cl | 0

Test system: Splenocyte
Test: Immunomodulatory activity in Swiss albino mouse splenocytes assessed as cell viability at 10 uM by measuring stimulation index incubated for 72 hrs in presence of mitogenic stimulus phytohaemagglutinin by MTT assay (reference value: 1.00 +/- 0.24)
Type: functional
Details: not given

Structure (SMILES) | Activity_index
COc1cc(/C=C/C(=O)/C=C(O)/C=C/c2ccc(OC(=O)[C@@H](C)N)c(OC)c2)ccc1OC(=O)[C@@H](C)N.Cl.Cl | 1.35

Test system: Splenocyte
Test: Immunomodulatory activity in Swiss albino mouse splenocytes assessed as cell viability at 10 uM by measuring inhibition of stimulation index incubated for 72 hrs in presence of mitogenic stimulus phytohaemagglutinin by MTT assay relative to indomethacin
Type: functional
Details: read-out: Activity

Structure (SMILES) | viability at 10 µM [%]
COc1cc(/C=C/C(=O)/C=C(O)/C=C/c2ccc(OC(=O)[C@@H](C)N)c(OC)c2)ccc1OC(=O)[C@@H](C)N.Cl.Cl | 89.6

Test system: Peritoneal macrophage
Test: Antiinflammatory activity in […] mouse Peritoneal macrophages assessed as reduction in LPS-induced NO production by measuring reduction in stimulation index at 10 uM preincubated for 1 hr followed by LPS stimulation measured after 24 hrs by Griess method (reference value: 27.31 +/- 2.56 uM)
Type: functional
Details: time 25 hrs

Structure (SMILES) | Activity [µM]
COc1cc(/C=C/C(=O)/C=C(O)/C=C/c2ccc(OC(=O)[C@@H](C)N)c(OC)c2)ccc1OC(=O)[C@@H](C)N.Cl.Cl | 16.04

Test system: Peritoneal macrophage
Test: Antiinflammatory activity in […] mouse Peritoneal macrophages assessed as inhibition of LPS-induced NO production at 10 uM preincubated for 1 hr followed by LPS stimulation measured after 24 hrs by Griess method relative to control (reference value: 0.0 %)
Type: functional
Set-up: scale not given: the % may be the effect or the level left
Details: time 25 hrs

Structure (SMILES) | Activity [%]
COc1cc(/C=C/C(=O)/C=C(O)/C=C/c2ccc(OC(=O)[C@@H](C)N)c(OC)c2)ccc1OC(=O)[C@@H](C)N.Cl.Cl | 41.26

Test system: Mus musculus
Test: Analgesic activity in albino mouse assessed reduction in acetic acid-induced abdominal writhing by measuring writing reflex at 10 mg/kg, ip pretreated for 1 hr followed by acetic acid challenge and measured starting 5 mins post acetic acid challenge for 10 mins (reference value: 42.4 +/- 1.02)
Type: functional
Details: time 75 min, 1.25 h

Structure (SMILES) | Activity
COc1cc(/C=C/C(=O)/C=C(O)/C=C/c2ccc(OC(=O)[C@@H](C)N)c(OC)c2)ccc1OC(=O)[C@@H](C)N.Cl.Cl | 13.8
